Results published in patent US10894817B2, “Fatty acid modified urocortin-2 analogs for the treatment of diabetes and chronic kidney disease” (priority 2016, dated 2021).
Starred links: 1 amine or outer side, 2 acyl side, 3 side chain; linkers in the order of their positions; H or OH if unused. Non-standard residues stand in square brackets, D forms with d. Residues, ends and D or L forms follow the SMILES beside them. Groups on a side chain read outwards from the residue. *: point of attachment. C20 diacid = O=C(O)CCCCCCCCCCCCCCCCCCC(=O)*; C18 diacid = O=C(O)CCCCCCCCCCCCCCCCC(=O)*; γGlu = O=C(O)[C@H](CCC(=O)[*:2])N[*:1]; Palmitoyl = CCCCCCCCCCCCCCCC(=O)*; NMeI = CC[C@H](C)[C@H](NC)C(=O)O; AEEA = NCCOCCOCC(=O)O

biological target: T1, human CRHR2b (Homo sapiens, UniProt Q13324); assay: human CRHR2b cell-based cAMP assay; details: cAMP assay; Table 26, compounds of Example 9; read-out: hCRHR2b Average EC50
T1 construct: expressed in transfected cells; host or cells: Chinese Hamster Ovary (CHO) cells, transient transfection
T1 sequence (Q13324 1-438 isoform Q13324-2): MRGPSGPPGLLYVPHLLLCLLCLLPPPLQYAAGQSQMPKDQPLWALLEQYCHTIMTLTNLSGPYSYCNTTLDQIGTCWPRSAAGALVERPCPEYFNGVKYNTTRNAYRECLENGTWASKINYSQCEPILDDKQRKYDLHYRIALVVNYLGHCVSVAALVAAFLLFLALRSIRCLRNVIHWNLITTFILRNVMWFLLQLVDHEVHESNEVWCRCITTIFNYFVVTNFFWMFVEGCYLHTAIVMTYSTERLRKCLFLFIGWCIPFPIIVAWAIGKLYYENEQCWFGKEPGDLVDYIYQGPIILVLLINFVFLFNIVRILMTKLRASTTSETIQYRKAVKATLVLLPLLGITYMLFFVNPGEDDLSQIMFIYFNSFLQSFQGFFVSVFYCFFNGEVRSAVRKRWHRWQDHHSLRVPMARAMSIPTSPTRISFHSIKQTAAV
Summary of the method: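 ED50 values are means ± SEM over several runs, curve-fitted from cAMP in pmol, calibrated against unlabeled-cAMP standards. Detection was HTRF competition, ratio 665/620 nm, after 30 min agonist exposure at 37 °C.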

EC50 [nM] | Structure (SMILES)
4.56 | CC[C@H](C)[C@H](N)C(=O)N[C@H](C(=O)N[C@@H](CC(C)C)C(=O)N[C@@H](CO)C(=O)N[C@@H](CC(C)C)C(=O)N[C@@H](CC(=O)O)C(=O)N[C@H](C(=O)N1CCC[C@H]1C(=O)N[C@H](C(=O)NCC(=O)N[C@@H](CC(C)C)C(=O)N[C@@H](CC(C)C)C(=O)N[C@@H](CCC(N)=O)C(=O)N[C@H](C(=O)N[C@@H](CC(C)C)C(=O)N[C@@H](CC(C)C)C(=O)N[C@@H](CCC(=O)O)C(=O)N[C@@H](CCC(N)=O)C(=O)N[C@@H](CCC(=O)O)C(=O)N[C@@H](CCCCN)C(=O)N[C@@H](CCC(N)=O)C(=O)N[C@@H](CCC(=O)O)C(=O)N[C@@H](CCCCN)C(=O)N[C@@H](CCC(=O)O)C(=O)N[C@@H](CCCCN)C(=O)N[C@@H](CCCCNC(=O)COCCOCCNC(=O)COCCOCCNC(=O)CC[C@H](NC(=O)CC[C@H](NC(=O)CCCCCCCCCCCCCCCCC(=O)O)C(=O)O)C(=O)O)C(=O)N[C@@H](CCC(N)=O)C(=O)N[C@@H](C)C(=O)N[C@H](C(=O)N[C@H](C(=O)N[C@@H](CC(N)=O)C(=O)N[C@@H](C)C(=O)N[C@@H](CCC(N)=O)C(=O)N[C@H](C(=O)N[C@@H](CC(C)C)C(=O)N[C@@H](C)C(=O)N[C@@H](Cc1c[nH]cn1)C(=O)N[C@H](C(N)=O)C(C)C)[C@@H](C)CC)[C@@H](C)O)[C@@H](C)O)[C@@H](C)CC)[C@@H](C)CC)C(C)C)C(C)C [Compound 47] (H-IVLSLDVPIGLLQILLEQEKQEKEKK([AEEA-AEEA-γGlu-γGlu-C18 diacid])QATTNAQILAHV-NH2)
83.2 | CCCCCCCCCCCCCCCC(=O)N[C@@H](CCC(=O)NCCCC[C@H](NC(=O)[C@H](CCC(=O)O)NC(=O)[C@H](CCC(N)=O)NC(=O)[C@H](CCCCN)NC(=O)[C@H](CCC(=O)O)NC(=O)[C@H](CCC(N)=O)NC(=O)[C@H](CCC(=O)O)NC(=O)[C@H](CC(C)C)NC(=O)[C@H](CC(C)C)NC(=O)[C@@H](NC(=O)[C@H](CCC(N)=O)NC(=O)[C@H](CC(C)C)NC(=O)[C@H](CC(C)C)NC(=O)CNC(=O)[C@@H](NC(=O)[C@@H]1CCCN1C(=O)[C@@H](NC(=O)[C@H](CC(=O)O)NC(=O)[C@H](CC(C)C)NC(=O)[C@H](CO)NC(=O)[C@H](CC(C)C)NC(=O)[C@@H](NC(=O)[C@@H](N)[C@@H](C)CC)C(C)C)C(C)C)[C@@H](C)CC)[C@@H](C)CC)C(=O)N[C@@H](CCC(=O)O)C(=O)N[C@@H](CCCCN)C(=O)N[C@@H](CCC(N)=O)C(=O)N[C@@H](CCC(N)=O)C(=O)N[C@@H](C)C(=O)N[C@H](C(=O)N[C@H](C(=O)N[C@@H](CC(N)=O)C(=O)N[C@@H](C)C(=O)N[C@@H](CCCNC(=N)N)C(=O)N[C@H](C(=O)N[C@@H](CC(C)C)C(=O)N[C@@H](C)C(=O)N[C@@H](CCCNC(=N)N)C(=O)N[C@H](C(N)=O)C(C)C)[C@@H](C)CC)[C@@H](C)O)[C@@H](C)O)C(=O)O [Compound 28] (H-IVLSLDVPIGLLQILLEQEKQEK([γGlu-Palmitoyl])EKQQATTNARILARV-NH2)
9.18 | CCCCCCCCCCCCCCCC(=O)N[C@@H](CCC(=O)NCCOCCOCC(=O)NCCCC[C@H](NC(=O)[C@H](CCC(=O)O)NC(=O)[C@H](CCCCN)NC(=O)[C@H](CCC(=O)O)NC(=O)[C@H](CCC(N)=O)NC(=O)[C@H](CCCCN)NC(=O)[C@H](CCC(=O)O)NC(=O)[C@H](CCC(N)=O)NC(=O)[C@H](CCC(=O)O)NC(=O)[C@H](CC(C)C)NC(=O)[C@H](CC(C)C)NC(=O)[C@@H](NC(=O)[C@H](CCC(N)=O)NC(=O)[C@H](CC(C)C)NC(=O)[C@H](CC(C)C)NC(=O)CNC(=O)[C@@H](NC(=O)[C@@H]1CCCN1C(=O)[C@@H](NC(=O)[C@H](CC(=O)O)NC(=O)[C@H](CC(C)C)NC(=O)[C@H](CO)NC(=O)[C@H](CC(C)C)NC(=O)[C@@H](NC(=O)[C@@H](N)[C@@H](C)CC)C(C)C)C(C)C)[C@@H](C)CC)[C@@H](C)CC)C(=O)N[C@@H](CCC(N)=O)C(=O)N[C@@H](CCC(N)=O)C(=O)N[C@@H](C)C(=O)N[C@H](C(=O)N[C@H](C(=O)N[C@@H](CC(N)=O)C(=O)N[C@@H](C)C(=O)N[C@@H](CCCNC(=N)N)C(=O)N[C@H](C(=O)N[C@@H](CC(C)C)C(=O)N[C@@H](C)C(=O)N[C@@H](CCCNC(=N)N)C(=O)N[C@H](C(N)=O)C(C)C)[C@@H](C)CC)[C@@H](C)O)[C@@H](C)O)C(=O)O [Compound 32] (H-IVLSLDVPIGLLQILLEQEKQEKEK([AEEA-γGlu-Palmitoyl])QQATTNARILARV-NH2)
13.4 | CC[C@H](C)[C@H](N)C(=O)N[C@H](C(=O)N[C@@H](CC(C)C)C(=O)N[C@@H](CO)C(=O)N[C@@H](CC(C)C)C(=O)N[C@@H](CC(=O)O)C(=O)N[C@H](C(=O)N1CCC[C@H]1C(=O)N[C@H](C(=O)NCC(=O)N[C@@H](CC(C)C)C(=O)N[C@@H](CC(C)C)C(=O)N[C@@H](CCC(N)=O)C(=O)N[C@H](C(=O)N[C@@H](CC(C)C)C(=O)N[C@@H](CC(C)C)C(=O)N[C@@H](CCC(=O)O)C(=O)N[C@@H](CCCCNC(=O)COCCOCCNC(=O)COCCOCCNC(=O)CC[C@H](NC(=O)CC[C@H](NC(=O)CCCCCCCCCCCCCCCCC(=O)O)C(=O)O)C(=O)O)C(=O)N[C@@H](CCC(=O)O)C(=O)N[C@@H](CCCCN)C(=O)N[C@@H](CCC(N)=O)C(=O)N[C@@H](CCC(=O)O)C(=O)N[C@@H](CCCCN)C(=O)N[C@@H](CCC(=O)O)C(=O)N[C@@H](CCCCN)C(=O)N[C@@H](CCC(N)=O)C(=O)N[C@@H](CCC(N)=O)C(=O)N[C@@H](C)C(=O)N[C@H](C(=O)N[C@H](C(=O)N[C@@H](CC(N)=O)C(=O)N[C@@H](C)C(=O)N[C@@H](CCC(N)=O)C(=O)N[C@H](C(=O)N[C@@H](CC(C)C)C(=O)N[C@@H](C)C(=O)N[C@@H](Cc1c[nH]cn1)C(=O)N[C@H](C(N)=O)C(C)C)[C@@H](C)CC)[C@@H](C)O)[C@@H](C)O)[C@@H](C)CC)[C@@H](C)CC)C(C)C)C(C)C [Compound 44] (H-IVLSLDVPIGLLQILLEK([AEEA-AEEA-γGlu-γGlu-C18 diacid])EKQEKEKQQATTNAQILAHV-NH2)
2.33 | CCCCCCCCCCCCCCCC(=O)N[C@@H](CCC(=O)N[C@@H](CCC(=O)NCCCC[C@H](NC(=O)[C@H](C)NC(=O)[C@H](CCC(N)=O)NC(=O)[C@H](CCC(N)=O)NC(=O)[C@H](CCCCN)NC(=O)[C@H](CCC(=O)O)NC(=O)[C@H](CCCCN)NC(=O)[C@H](CCC(=O)O)NC(=O)[C@H](CCC(N)=O)NC(=O)[C@H](CCCCN)NC(=O)[C@H](CCC(=O)O)NC(=O)[C@H](CCC(N)=O)NC(=O)[C@H](CCC(=O)O)NC(=O)[C@H](CC(C)C)NC(=O)[C@H](CC(C)C)NC(=O)[C@@H](NC(=O)[C@H](CCC(N)=O)NC(=O)[C@H](CC(C)C)NC(=O)[C@H](CC(C)C)NC(=O)CNC(=O)[C@@H](NC(=O)[C@@H]1CCCN1C(=O)[C@@H](NC(=O)[C@H](CC(=O)O)NC(=O)[C@H](CC(C)C)NC(=O)[C@H](CO)NC(=O)[C@H](CC(C)C)NC(=O)[C@@H](NC(=O)[C@@H](N)[C@@H](C)CC)C(C)C)C(C)C)[C@@H](C)CC)[C@@H](C)CC)C(=O)N[C@H](C(=O)N[C@@H](CC(N)=O)C(=O)N[C@@H](C)C(=O)N[C@@H](CCCNC(=N)N)C(=O)N[C@H](C(=O)N[C@@H](CC(C)C)C(=O)N[C@@H](C)C(=O)N[C@@H](CCCNC(=N)N)C(=O)N[C@H](C(N)=O)C(C)C)[C@@H](C)CC)[C@@H](C)O)C(=O)O)C(=O)O [Compound 38] (H-IVLSLDVPIGLLQILLEQEKQEKEKQQAK([γGlu-γGlu-Palmitoyl])TNARILARV-NH2)
1.45 | CC[C@H](C)[C@H](NC)C(=O)N[C@H](C(=O)N[C@H](C(=O)N[C@@H](CO)C(=O)N[C@@H](CC(C)C)C(=O)N[C@@H](CC(=O)O)C(=O)N[C@H](C(=O)N1CCC[C@H]1C(=O)N[C@H](C(=O)NCC(=O)N[C@@H](CC(C)C)C(=O)N[C@@H](CC(C)C)C(=O)N[C@@H](CCC(N)=O)C(=O)N[C@H](C(=O)N[C@@H](CC(C)C)C(=O)N[C@@H](CC(C)C)C(=O)N[C@@H](CCC(=O)O)C(=O)N[C@@H](CCC(N)=O)C(=O)N[C@@H](CCC(=O)O)C(=O)N[C@@H](CCCCN)C(=O)N[C@@H](CCC(N)=O)C(=O)N[C@@H](CCC(=O)O)C(=O)N[C@@H](CCCCN)C(=O)N[C@@H](CCC(=O)O)C(=O)N[C@@H](CCCCN)C(=O)N[C@@H](CCC(N)=O)C(=O)N[C@@H](CCC(N)=O)C(=O)N[C@@H](C)C(=O)N[C@@H](CCCCNC(=O)CC[C@H](NC(=O)COCCOCCNC(=O)COCCOCCNC(=O)CC[C@H](NC(=O)CC[C@H](NC(=O)CCCCCCCCCCCCCCCCCCC(=O)O)C(=O)O)C(=O)O)C(=O)O)C(=O)N[C@H](C(=O)N[C@@H](CC(N)=O)C(=O)N[C@@H](C)C(=O)N[C@@H](CCC(=O)O)C(=O)N[C@H](C(=O)N[C@@H](CC(C)C)C(=O)N[C@@H](C)C(=O)N[C@@H](CCC(N)=O)C(=O)N[C@H](C(N)=O)C(C)C)[C@@H](C)CC)[C@@H](C)O)[C@@H](C)CC)[C@@H](C)CC)C(C)C)[C@@H](C)O)C(C)C [Compound 66] (H-[NMeI]VTSLDVPIGLLQILLEQEKQEKEKQQAK([γGlu-AEEA-AEEA-γGlu-γGlu-C20 diacid])TNAEILAQV-NH2)
